Test results from US20230151376A1, “ORGANELLE TRANSFORMANT SCREENING METHOD” (NATIONAL UNIVERSITY CORPORATION KOBE UNIVERSITY, priority 2020, published 2023).

Assays:
[1] = tested on: Arabidopsis thaliana cultured cells 87T; assay: Concerted sensitivity test on herbicide and antibiotic in Arabidopsis thaliana cultured cells; format: cell-based; details: for inhibition of the growth rate in combination with spectinomycin: both spectinomycin and herbicide, effect not observed with individual administration of the same concentration
Description: Arabidopsis thaliana cultured cells 87T were used in the experiment. Media comprising different concentrations of a group of herbicides and spectinomycin using a redifferentiation medium (Q. Yu. et al. Plant Physiol. 2017. 175(1). 186-193) as the base were added to each well of a 24-well plate. Specifically, a plate with varying concentrations of the group of herbicides of 0, 0.1, 1, 10, 50, and 100 μM in the direction of the X-axis of the plate and varying concentrations of an antibiotic spectinomycin of 0, 1, 10, and 100 μg/mL in the direction of the y-axis was prepared (FIG. 9A). Pinoxaden, tepraloxydim, tralkoxydim, cyhalofop butyl, and haloxyfop were used as the group of herbicides in each plate. 100 μL of cultured cells was added to each well and cultured under light-dark conditions in an artificial climate incubator. On days 3, 7, and 15 after culture, the growth status was checked to study the concerted sensitivity of a herbicide and antibiotic. • Results

Oryza sativa callus = assay: Herbicide selection of Oryza sativa callus on redifferentiation selection medium after plasmid bombardment; format: cell-based, Oryza sativa japonica (Nipponbare); details: callus introduced with pNC (no resistance) sensitive; redifferentiated individuals counted after about 6 weeks; tested 0.1-4.0 μM
Description: For the experiment, Oryza sativa japonica (Nipponbare) was used. Threshed Oryza sativa seeds were placed in a callus inducing medium, i.e., an N6D medium (Z. Shimatani et al. Nat Biol. 2017), and grown under conditions of 25° C. away from light within an artificial climate incubator to induce a primary callus. To prepare a callus plate for introducing a gene, the primary callus that had been actively growing for several weeks since induction of the callus from seeds was strained using a sterilized mesh. The refined callus was uniformly applied on filter paper placed on a callus inducing medium plate. A gene was introduced to a plate obtained by culturing the callus for 3 to 4 days within the artificial climate incubator. For selection of a transformant, a redifferentiation medium which is an MSRE medium (Z. Shimatani et al. Nat Biol. 2017) added with a suitable herbicide was used and cultured under conditions of 31.5° C. in a light-dark cycle of 12 hours within the artificial climate incubator. […]
After introduction of a gene, the plate was subjected to expansion culture under dark conditions in the artificial climate incubator for 3 to 4 days. […] The number of individuals redifferentiated from the callus clumps was counted as the selected individual count. • <Detection of Transgenesis in a Created Individual>

Structure (SMILES)	concentration at which a selection effect of the herbicide can be expected (Oryza sativa callus) [µM]	inhibition of the growth rate in combination with spectinomycin [1]	further results
CCCCOC(=O)[C@@H](C)Oc1ccc(Oc2ccc(C#N)cc2F)cc1 [cyhalofop butyl]			inhibition of the growth rate by herbicide alone ([1]; herbicide alone, within the range of concentrations studied (0-100 μM)): not observed
CC(Oc1ccc(Oc2ncc(C(F)(F)F)cc2Cl)cc1)C(=O)O (centres unmarked) [haloxyfop]	≥ 0.1	significant inhibition of the growth rate	
CCc1cc(C)cc(CC)c1-c1c(OC(=O)C(C)(C)C)n2n(c1=O)CCOCC2 [pinoxaden]		significant inhibition of the growth rate	herbicide concentration at which inhibition of growth was observed ([1]; herbicide alone, tested 0-100 μM, growth checked on days 3, 7, 15): ≥ 10 µM
CN[C@@H]1[C@H](O)[C@H](NC)[C@H]2O[C@@]3(O)C(=O)C[C@@H](C)O[C@H]3O[C@@H]2[C@H]1O [spectinomycin]			colour of cultured cells (chloroplast development) ([1]; 100 μg/mL spectinomycin): Change in color to yellow; inhibition of the growth rate by spectinomycin alone ([1]; only spectinomycin, concentration range studied (0-100 μg/mL)): not inhibited
CCO/N=C(\CC)C1=C(O)CC(c2c(C)cc(C)cc2C)CC1=O (centres unmarked) [tralkoxydim]	≥ 0.5		
